# Where two headings read alike, the source gives them in different places.
# Legend:
# Test in all cases: 72-hour CellTiter-Glo 2.0 growth inhibition screen (single agent, 9x9 combination dose matrix)
# Format in all cases: cell-based
# AsPC-1 = details: for EC50: ASPC1, 72 h
# Description: (§1) Growth inhibition was determined using a 72-hour CellTiter-Glo®2.0 proliferation assay. Combination format was a 9×9 dose matrix. Six of the 20 cell lines received the original two combinations whilst the remaining 14 cell lines received two additional combinations resulting in four combinations in total. Results have been supplied as both Chalice Analyzer files (.mcc) and raw luminescence data.
# (§2) Cell lines that have been preserved in liquid nitrogen are thawed and expanded in growth media (see Appendix I). Once cells have reached expected doubling times, screening begins. Cells are seeded in 25 μl of growth media in black 384-well tissue culture treated plates at 500 cells per well (as noted in Analyzer). Cells are equilibrated in assay plates via centrifugation and placed at 37° C. 5% CO2 for twenty-four hours before treatment. […] Compounds are transferred to assay plates using and Echo acoustic liquid handling system. […] of each compound was added at the appropriate concentration for all combination dose points. Therefore, final assay volume would be 25.05 μl. Assay plates are incubated with compound for 3 days and are then analyzed using CellTiter-Glo 2.0. All data points are collected via automated processes and are subject to quality control and analyzed.
# (§3) If T≥V_0:100*(1−(T−V_0)/(V−V_0)) • where T is the signal measure for a test article, V is the untreated/vehicle-treated control measure, and Vo is the untreated/vehicle control measure at time zero (also colloquially referred as TO plates). This formula is derived from the Growth Inhibition calculation used in the National Cancer Institute's NCI-60 high throughput screen. For the purposes of this disclosure, all data analysis was performed in Growth Inhibition (except where noted).
# (§4) Inhibition is also provided as a measure of cell viability. […] Inhibition of 100% represents no doubling of cell numbers during the treatment window. Both cytostatic and cytotoxic treatments can yield an Inhibition percentage of 100%. Inhibition percentage is calculated as the following: […]
# (§5) The fractional inhibition for each component agent and combination point in the matrix is calculated relative to the median of all untreated/vehicle-treated control wells. The Synergy Score equation integrates the experimentally-observed activity volume at each point in the matrix in excess of a model surface numerically derived from the activity of the component agents using the Loewe model for additivity. Additional terms in the Synergy Score equation (above) are used to normalize for various dilution factors used for individual agents and to allow for comparison of synergy scores across an entire experiment. The inclusion of positive inhibition gating or an Idata multiplier removes noise near the zero-effect level, and biases results for synergistic interactions at that occur at high activity levels. Combinations with higher maximum Growth Inhibition (GI) effects or those which are synergistic at low concentrations will have higher Synergy Scores.
# (§6) The CI is a rough estimate of how much drug was needed in combination relative to the single agent doses required to achieve the chosen effect level. CI values in the range of 0.5-0.7 are typical for in vitro measurements of current clinical combinations. The CI error (σCI) is calculated using standard error propagation through the CI calculation based on the isobologram errors. In the Chalice Analyzer, the Best CI is reported from the many CI values calculated for each Icut crossing combination. Among all the measured CI values, the one with the largest single-to-noise level (1−CI)/σCI is reported as the Best CI. Best CI Level is the effect level from which the CI is calculated.
# LS-513 = details: for EC50: LS-513, 72 h
# Description: as §1, §2, §3, §4, §5, §6
# HPAF-II = system: HPAF-II
# Description: as §1, §2, §3, §4, §5, §6
# SW48 KRAS (G12C/+) = details: for EC50: SW48, 72 h, read-out: EC50
# Description: as §1, §2, §3, §4, §5, §6
# SW48 = details: for EC50: SW48, 72 h
# Description: as §1, §2, §3, §4, §5, §6
# [1] = AsPC-1 (KRAS G12D), enhancer + MEI-522 (Voruciclib), 72 h
# [2] = enhancer combined with MEI-522 (Voruciclib), AsPC-1 (Pancreas), 72 hours, inhibition data
# [3] = Homo sapiens, LS-513, Colorectal, Additional Single Agent Responses (inhibition, % I), 72 h
# [4] = Homo sapiens, LS-513, Colorectal, growth inhibition (GI) curve, single agent, 72 h
# [5] = LS-513 (KRAS G12D), enhancer + MEI-522 (Voruciclib), 72 h
# [6] = enhancer combined with MEI-522 (Voruciclib), LS-513 (Colorectal), 72 hours, inhibition data
# [7] = HPAF-II (KRAS G12D), enhancer + MEI-522 (Voruciclib), 72 h
# [8] = enhancer combined with MEI-522 (Voruciclib), HPAF-II (Pancreas), 72 hours, inhibition data
# [9] = Homo sapiens, SW48 KRAS (G12C/+), Colorectal, Additional Single Agent Responses (inhibition, % I), 72 h
# [10] = Homo sapiens, SW48 KRAS (G12C/+), Colorectal, growth inhibition (GI) curve, single agent, 72 h
# [11] = SW48 KRAS (G12C/+), enhancer + MEI-522 (Voruciclib), 72 h
# [12] = enhancer combined with MEI-522 (Voruciclib), SW48 KRAS (G12C/+) (Colorectal), 72 hours, inhibition data
# [13] = Homo sapiens, SW48, Colorectal, Additional Single Agent Responses (inhibition, % I), 72 h
# [14] = Homo sapiens, SW48, Colorectal, growth inhibition (GI) curve, single agent, 72 h
# [15] = SW48 (KRAS WT), enhancer + MEI-522 (Voruciclib), 72 h
# [16] = enhancer combined with MEI-522 (Voruciclib), SW48 (Colorectal), 72 hours, inhibition data
structure (smiles),measurement,setting,value
CN1CCN(c2ccc(OC(F)(F)F)c(Nc3ncc4c(n3)-c3c(c(C(N)=O)nn3CCO)CC4)c2)CC1 [Onvansertib],Best CI,AsPC-1; [1],0.84
same,Bliss Volume,AsPC-1; [1],−1.25
same,HSA volume,AsPC-1; [1],−1.39
same,Loewe Volume,AsPC-1; [1],−0.75
same,Synergy Score,AsPC-1; [1],1.41
same,Response Area,"AsPC-1; AsPC-1, Pancreas, Additional Single Agent Responses (inhibition, % I), 72 h",2.50
same,Response Area,"AsPC-1; AsPC-1, Pancreas, growth inhibition (GI), AUC, single agent, 72 h",3.48
same,EC50,"AsPC-1; Homo sapiens, AsPC-1, Pancreas, Additional Single Agent Responses (inhibition, % I), 72 h",94.9 nM
same,EC50,"AsPC-1; Homo sapiens, AsPC-1, Pancreas, growth inhibition (GI) curve, single agent, 72 h",82.3 nM
same,IC50,"AsPC-1; Homo sapiens, ASPC1, AsPC-1, Pancreas, Additional Single Agent Responses (inhibition, % I), 72 h",332 nM
same,Emax,"AsPC-1; Homo sapiens, ASPC1, AsPC-1, Pancreas, Additional Single Agent Responses, 72 h, read-out: Max Response (% I)",60%
same,GI50,"AsPC-1; Homo sapiens, ASPC1, AsPC-1, Pancreas, growth inhibition (GI) curve, single agent, 72 h",109 nM
same,Emax,"AsPC-1; Homo sapiens, ASPC1, AsPC-1, Pancreas, growth inhibition (GI), single agent, 72 h, read-out: Max Response (% GI)",84%
same,Best CI,AsPC-1; [2],1.13
same,Best CI Level,AsPC-1; [2],20
same,Bliss Volume,AsPC-1; [2],−1.91
same,HSA volume,AsPC-1; [2],−0.98
same,Loewe Volume,AsPC-1; [2],−0.67
same,Synergy Score,AsPC-1; [2],0.67
same,EC50,LS-513; [3],49.4 nM
same,EC50,LS-513; [4],49.4 nM
same,IC50,LS-513; [3],61.6 nM
same,Emax,"LS-513; Homo sapiens, LS-513, Colorectal, Additional Single Agent Responses, 72 h, read-out: Max Response (% I)",79%
same,GI50,LS-513; [4],51.7 nM
same,Emax,"LS-513; Homo sapiens, LS-513, Colorectal, growth inhibition (GI), single agent, 72 h, read-out: Max Response (% GI)",97%
same,Best CI,LS-513; [5],0.96
same,Bliss Volume,LS-513; [5],0.53
same,HSA volume,LS-513; [5],−0.64
same,Loewe Volume,LS-513; [5],−1.49
same,Synergy Score,LS-513; [5],2.51
same,Response Area,"LS-513; LS-513, Colorectal, Additional Single Agent Responses (inhibition, % I), 72 h",3.29
same,Response Area,"LS-513; LS-513, Colorectal, growth inhibition (GI), AUC, single agent, 72 h",4.03
same,Best CI,LS-513; [6],0.90
same,Best CI Level,LS-513; [6],20
same,Bliss Volume,LS-513; [6],−2.22
same,HSA volume,LS-513; [6],−0.87
same,Loewe Volume,LS-513; [6],−1.32
same,Synergy Score,LS-513; [6],0.70
same,Best CI,HPAF-II; [7],0.70
same,Bliss Volume,HPAF-II; [7],−0.18
same,HSA volume,HPAF-II; [7],0.48
same,Loewe Volume,HPAF-II; [7],−0.22
same,Synergy Score,HPAF-II; [7],1.29
same,Response Area,"HPAF-II; HPAF-II, Pancreas, Additional Single Agent Responses (inhibition, % I), 72 h",2.97
same,Response Area,"HPAF-II; HPAF-II, Pancreas, growth inhibition (GI), AUC, single agent, 72 h",3.98
same,EC50,"HPAF-II; Homo sapiens, HPAF-II, 72 h, Pancreas, Additional Single Agent Responses (inhibition, % I)",20.9 nM
same,EC50,"HPAF-II; Homo sapiens, HPAF-II, 72 h, Pancreas, growth inhibition (GI) curve, single agent",21 nM
same,IC50,"HPAF-II; Homo sapiens, HPAF-II, Pancreas, Additional Single Agent Responses (inhibition, % I), 72 h",35.9 nM
same,Emax,"HPAF-II; Homo sapiens, HPAF-II, Pancreas, Additional Single Agent Responses, 72 h, read-out: Max Response (% I)",65%
same,GI50,"HPAF-II; Homo sapiens, HPAF-II, Pancreas, growth inhibition (GI) curve, single agent, 72 h",24.2 nM
same,Emax,"HPAF-II; Homo sapiens, HPAF-II, Pancreas, growth inhibition (GI), single agent, 72 h, read-out: Max Response (% GI)",87%
same,Best CI,HPAF-II; [8],0.85
same,Bliss Volume,HPAF-II; [8],−1.20
same,HSA volume,HPAF-II; [8],0.37
same,Loewe Volume,HPAF-II; [8],−0.12
same,Synergy Score,HPAF-II; [8],0.74
same,Best CI Level,"HPAF-II; enhancer combined with MEI-522 (Voruciclib), HPAF-II (Pancreas), 72 hours, inhibition data, unit assumed",20%
same,EC50,SW48 KRAS (G12C/+); [9],15.5 nM
same,EC50,SW48 KRAS (G12C/+); [10],17.1 nM
same,IC50,SW48 KRAS (G12C/+); [9],16.3 nM
same,Emax,"SW48 KRAS (G12C/+); Homo sapiens, SW48 KRAS (G12C/+), Colorectal, Additional Single Agent Responses, 72 h, read-out: Max Response (% I)",93%
same,GI50,SW48 KRAS (G12C/+); [10],15.9 nM
same,Emax,"SW48 KRAS (G12C/+); Homo sapiens, SW48 KRAS (G12C/+), Colorectal, growth inhibition (GI), single agent, 72 h, read-out: Max Response (% GI)",159%
same,Response Area,"SW48 KRAS (G12C/+); SW48 KRAS (G12C/+), Colorectal, Additional Single Agent Responses (inhibition, % I), 72 h",4.14
same,Response Area,"SW48 KRAS (G12C/+); SW48 KRAS (G12C/+), Colorectal, growth inhibition (GI), AUC, single agent, 72 h",5.77
same,Best CI,SW48 KRAS (G12C/+); [11],0.86
same,Bliss Volume,SW48 KRAS (G12C/+); [11],2.74
same,HSA volume,SW48 KRAS (G12C/+); [11],−2.16
same,Loewe Volume,SW48 KRAS (G12C/+); [11],−0.91
same,Synergy Score,SW48 KRAS (G12C/+); [11],5.28
same,Best CI,SW48 KRAS (G12C/+); [12],0.67
same,Best CI Level,SW48 KRAS (G12C/+); [12],20
same,Bliss Volume,SW48 KRAS (G12C/+); [12],−0.08
same,HSA volume,SW48 KRAS (G12C/+); [12],0.19
same,Loewe Volume,SW48 KRAS (G12C/+); [12],−0.06
same,Synergy Score,SW48 KRAS (G12C/+); [12],1.03
same,EC50,SW48; [13],13.8 nM
same,EC50,SW48; [14],15.4 nM
same,IC50,SW48; [13],14.3 nM
same,Emax,"SW48; Homo sapiens, SW48, Colorectal, Additional Single Agent Responses, 72 h, read-out: Max Response (% I)",95%
same,GI50,SW48; [14],13.4 nM
same,Emax,"SW48; Homo sapiens, SW48, Colorectal, growth inhibition (GI), single agent, 72 h, read-out: Max Response (% GI)",177%
same,Best CI,SW48; [15],0.72
same,Bliss Volume,SW48; [15],6.27
same,HSA volume,SW48; [15],−3.43
same,Loewe Volume,SW48; [15],−1.93
same,Synergy Score,SW48; [15],7.50
same,Response Area,"SW48; SW48, Colorectal, Additional Single Agent Responses (inhibition, % I), 72 h",4.36
same,Response Area,"SW48; SW48, Colorectal, growth inhibition (GI), AUC, single agent, 72 h",7.09
same,Best CI,SW48; [16],0.76
same,Bliss Volume,SW48; [16],−0.78
same,HSA volume,SW48; [16],−0.51
same,Loewe Volume,SW48; [16],−0.74
same,Synergy Score,SW48; [16],1.28
same,Best CI Level,"SW48; enhancer combined with MEI-522 (Voruciclib), SW48 (Colorectal), 72 hours, inhibition data, unit assumed",20%

# Source: patent publication US20240016781A1, “TREATMENT OF KRAS MUTANT CANCERS” (MEI Pharma, Inc., priority 2020, published 2024)
